Key:
Assay type in all cases: cell-based
[1] = system: RS4;11 cells; assay: Thiazolyl blue cell proliferation assay in RS4;11 cells; settings: Homo sapiens, RS4;11 acute lymphoblastic leukemia cells, 48 hours, read-out: IC50 (nM) for inhibiting the proliferation of RS4;11 cells
Text: (§1) The cell lines RS4;11 (human acute lymphocytic leukemia cells), Molt-4 cells (human acute lymphocytic leukemia cells), MV4;11 (human myeloid monocytic leukemia cells), and Light II cells were commercially available or purchased from ATCC (American Type Culture Collection) and routinely cultured according to instructions.
1) Study on the proliferation inhibition effects induced by the compounds of the present disclosure designed based on ABT199/263 against BCL-XL-dependent RS4;11 cells:
(§2) The specific steps were as follows: RS4;11 cells were seeded at a density of 3×10^4 cells/well in 90 μL of serum-containing RPMI-1640 culture medium. DT2216 and the compounds of the present disclosure were added to the cell suspension at corresponding concentration gradients. DT2216 and DMSO were used as positive and vehicle control, respectively. The positive control and negative control were treated with the same treatment method as the compounds of the present disclosure. After treating the cells with the compounds of the present disclosure for 48 hours, thiazole blue solution (5 mg/mL) was added at 10 μL/well to the cell suspension, followed by incubation for 3 hours at 37° C. in an incubator with 5% CO2. Then, triple solution (0.1 g/mL SDS, 5% isopropyl alcohol, 10 mM hydrochloric acid) was added, followed by incubation for 4-6 hours at 37° C. in an incubator with 5% CO2. After confirming that all the crystal violets were dissolved under inverted biological microscopy, the absorbance was measured at 490 nm using an Epoch microplate reader (Biotek Corporation). The growth inhibition of the compounds of the present disclosure on the cells was plotted by GraphPad Prism 8 software, and the IC50 values of the compounds of the present disclosure were calculated therefrom. The experiment had 3 replicates per group and was repeated at least three times.
We conducted dose-dependent experiments on the designed and synthesized compounds of the present disclosure in RS4;11 cells, which are highly sensitive to BCL-XL inhibitors. The cells were treated with 7 different concentrations (starting at the highest concentration of 1000 nM or 100 nM; 10-fold serial dilutions) of the compounds for 48 hours, and then tested using the thiazolyl blue cell proliferation assay.

[2] = system: MV4;11 cells; assay: Thiazolyl blue cell proliferation assay in MV4;11 cells; settings: Homo sapiens, MV4;11 myeloid monocytic leukemia cells, 48 hours, read-out: IC50 (nM) for inhibiting the proliferation of MV4;11 cells
Text: as §1
2) Study on the proliferation inhibition effects induced by the compounds of the present disclosure designed based on ABT199/263 against BCL-XL-dependent MV4;11 cells:
as §2, with “MV4;11” for “RS4;11”, “2×10^4” for “3×10^4”, “IMDM” for “RPMI-1640”, “µL/well” for “μL/well”

[3] = system: Molt-4 cells; assay: Thiazolyl blue cell proliferation assay in Molt-4 cells; settings: Homo sapiens, Molt-4 acute lymphocytic leukemia cells, 72 hours, read-out: IC50 (nM) for inhibiting the proliferation of Molt-4 cells
Text: as §1
3) Study on the proliferation inhibition effects induced by the compounds of the present disclosure designed based on ABT199/263 against BCL-XL-dependent Molt-4 cells:
as §2, with “follows: Molt-4” for “follows: RS4;11”, “of 2×10^4” for “of 3×10^4”, “in 180” for “in 90”, “serum-containing RPMI 1640” for “serum-containing RPMI-1640”, “for 72” for “for 48”, “at 20” for “at 10”

[4] = system: Hedgehog (Hh) signaling pathway; assay: Dual-luciferase reporter assay of Hedgehog activity in Light II cells; settings: SAG stimulation, 36 h, dual-luciferase assay reporter kit, read-out: IC50 (nM) in Light II cells (inhibiting Hedgehog activity)
Description: Determination of the IC50 Values of Compounds Inhibiting Hedgehog Activity—Dual-Luciferase Reporter Assay:
Light II cells were NIH3T3 cell lines that stably express the Gli-luciferase and TK-renilla reporters. They were cultured with DMEM medium containing 10% (v/v) fetal bovine serum (FBS), 0.4 mg/ml G418, 0.15 mg/ml bleomycin (Zeocin), and penicillin/streptomycin at 37° C. in an incubator with 5% CO2. Light II cells in the logarithmic growth phase were seeded at a density of 2.5×10^4 cells/well in a 96-well plate. After 24h incubation, the cells were subjected to treatment with SAG with or without different concentrations of the compounds of the present disclosure for 36 h. After that, the Hedgehog activity was measured using the dual fluorescence reporter kit according to its instructions. The experiment had 3 replicates per group and was repeated at least three times.

Row | IC50 [1] [nM] | IC50 [2] [nM] | IC50 [3] [nM] | IC50 [4] [nM] | Structure (SMILES)
1 | < 20 | < 20 | < 10 | < 10 | C[C@H]1CN([C@H]2CC[C@@H](CNc3ccc(S(=O)(=O)NC(=O)c4ccc(N5CCN(CC6=C(c7ccc(Cl)cc7)CC(C)(C)CC6)CC5)cc4Oc4cnc5[nH]ccc5c4)cc3[N+](=O)[O-])CC2)CCN1Cc1cc(Br)c2c(c1)C(=O)N(C1CCC(=O)NC1=O)C2 (stereo partly drawn) [BCL-03169, 2-((1H-pyrrolo[2,3-b]pyridin-5-yl)oxy)-N-((4-((((cis)-4-((3S)-4-((7-bromo-2-(2,6-dioxopiperidin-3-yl)-3-oxoisoindolin-5-yl)methyl)-3-methylpiperazin-1-yl)cyclohexyl)methyl)amino)-3-nitrophenyl)sulfonyl)-4-(4-((4′-chloro-5,5-dimethyl-3,4,5,6-tetrahydro-[1,1′-biphenyl]-2-yl)methyl)piperazin-1-yl)benzamide]
2 | < 20 | < 20 | < 10 | < 10 | C[C@@H]1CN([C@H]2CC[C@H](CNc3ccc(S(=O)(=O)NC(=O)c4ccc(N5CCN(CC6=C(c7ccc(Cl)cc7)CC(C)(C)CC6)CC5)cc4Oc4cnc5[nH]ccc5c4)cc3[N+](=O)[O-])CC2)CCN1Cc1ccc2c(c1)CN(C1CCC(=O)NC1=O)C2=O (stereo partly drawn) [BCL-03168, 2-((1H-pyrrolo[2,3-b]pyridin-5-yl)oxy)-4-(4-((4′-chloro-5,5-dimethyl-3,4,5,6-tetrahydro-[1,1′-biphenyl]-2-yl)methyl)piperazin-1-yl)-N-((4-((((trans)-4-((3R)-4-((2-(2,6-dioxopiperidin-3-yl)-1-oxoisoindolin-5-yl)methyl)-3-methylpiperazin-1-yl)cyclohexyl)methyl)amino)-3-nitrophenyl)sulfonyl)benzamide]

More lines, now with the values behind:

Row | Structure (SMILES) | IC50 [1] [nM] | IC50 [2] [nM] | IC50 [3] [nM] | IC50 [4] [nM]
3 | CC1(C)CCC(c2ccc(Cl)cc2)=C(CN2CCN(c3ccc(C(=O)NS(=O)(=O)c4ccc(N[C@H](CCN5CCN(Cc6ccc7c(c6)CN(C6CCC(=O)NC6=O)C7=O)CC5)CSc5ccccc5)c(S(=O)(=O)C(F)(F)F)c4)cc3)CC2)C1 (stereo partly drawn) [BCL-03177, 4-(4-((4′-chloro-4,4-dimethyl-3,4,5,6-tetrahydro-[1,1′-biphenyl]-2-yl)methyl)piperazin-1-yl)-N-((4-(((2R)-4-(4-((2-(2,6-dioxopiperidin-3-yl)-1-oxoisoindolin-5-yl)methyl)piperazin-1-yl)-1-(phenylthio)butan-2-yl)amino)-3-((trifluoromethyl)sulfonyl)phenyl)sulfonyl)benzamide] | < 20 | < 20 | < 10 | < 10
4 | C[C@H]1CN([C@H]2CC[C@H](CNc3ccc(S(=O)(=O)NC(=O)c4ccc(N5CCN(CC6=C(c7ccc(Cl)cc7)CC(C)(C)CC6)CC5)cc4Oc4cnc5[nH]ccc5c4)cc3[N+](=O)[O-])CC2)CCN1Cc1ccc2c(c1)CN(C1CCC(=O)NC1=O)C2=O (stereo partly drawn) [BCL-03166, 2-((1H-pyrrolo[2,3-b]pyridin-5-yl)oxy)-4-(4-((4′-chloro-5,5-dimethyl-3,4,5,6-tetrahydro-[1,1′-biphenyl]-2-yl)methyl)piperazin-1-yl)-N-((4-((((trans)-4-((3S)-4-((2-(2,6-dioxopiperidin-3-yl)-1-oxoisoindolin-5-yl)methyl)-3-methylpiperazin-1-yl)cyclohexyl)methyl)amino)-3-nitrophenyl)sulfonyl)benzamide] | < 20 | < 20 | < 10 | < 10
5 | C[C@H]1CN([C@H]2CC[C@@H](CNc3ccc(S(=O)(=O)NC(=O)c4ccc(N5CCN(CC6=C(c7ccc(Cl)cc7)CC(C)(C)CC6)CC5)cc4Oc4cnc5[nH]ccc5c4)cc3[N+](=O)[O-])CC2)CCN1Cc1ccc2c(c1)CN(C1CCC(=O)NC1=O)C2=O (stereo partly drawn) [BCL-03165, 2-((1H-pyrrolo[2,3-b]pyridin-5-yl)oxy)-4-(4-((4′-chloro-5,5-dimethyl-3,4,5,6-tetrahydro-[1,1′-biphenyl]-2-yl)methyl)piperazin-1-yl)-N-((4-((((cis)-4-((3S)-4-((2-(2,6-dioxopiperidin-3-yl)-1-oxoisoindolin-5-yl)methyl)-3-methylpiperazin-1-yl)cyclohexyl)methyl)amino)-3-nitrophenyl)sulfonyl)benzamide] | < 20 | < 20 | < 10 | < 10
6 | CC1(C)CCC(c2ccc(Cl)cc2)=C(CN2CCN(c3ccc(C(=O)NS(=O)(=O)c4ccc(N[C@H](CCN5CCN(Cc6ccc7c(c6)C(=O)N(C6CCC(=O)NC6=O)C7=O)CC5)CSc5ccccc5)c(S(=O)(=O)C(F)(F)F)c4)cc3)CC2)C1 (stereo partly drawn) [BCL-03189, 4-(4-((4′-chloro-4,4-dimethyl-3,4,5,6-tetrahydro-[1,1′-biphenyl]-2-yl)methyl)piperazin-1-yl)-N-((4-(((2R)-4-(4-((2-(2,6-dioxopiperidin-3-yl)-1,3-dioxoisoindolin-5-yl)methyl)piperazin-1-yl)-1-(phenylthio)butan-2-yl)amino)-3-((trifluoromethyl)sulfonyl)phenyl)sulfonyl)benzamide] | < 20 | < 20 | < 10 | < 10
7 | C[C@@H]1CN([C@H]2CC[C@@H](CNc3ccc(S(=O)(=O)NC(=O)c4ccc(N5CCN(CC6=C(c7ccc(Cl)cc7)CC(C)(C)CC6)CC5)cc4Oc4cnc5[nH]ccc5c4)cc3[N+](=O)[O-])CC2)CCN1Cc1ccc2c(c1)CN(C1CCC(=O)NC1=O)C2=O (stereo partly drawn) [BCL-03167, 2-((1H-pyrrolo[2,3-b]pyridin-5-yl)oxy)-4-(4-((4′-chloro-5,5-dimethyl-3,4,5,6-tetrahydro-[1,1′-biphenyl]-2-yl)methyl)piperazin-1-yl)-N-((4-((((cis)-4-((3R)-4-((2-(2,6-dioxopiperidin-3-yl)-1-oxoisoindolin-5-yl)methyl)-3-methylpiperazin-1-yl)cyclohexyl)methyl)amino)-3-nitrophenyl)sulfonyl)benzamide] | < 20 | < 20 | < 10 | < 10

— patent US20250154146A1, “PROTEIN DEGRADERS DEVELOPED ON BASIS OF BCL-2 FAMILY PROTEIN LIGAND COMPOUNDS AND USE THEREOF” (ShanghaiTech University, priority 2022, published 2025)
